In the NIST ThermoML archive (doi:10.1016/j.fluid.2017.03.021):
± gives the expanded uncertainty stated by the source.

Columns and labels:
[1] = molar heat capacity at constant pressure; conditions: 101.33 kPa, Liquid, DSC
[2] = 101.33 kPa, Liquid; for speed of sound: Sing-around technique in a fixed-path interferometer; for mass density: Vibrating tube method

CCCCn1cc[n+](CCC(C)C)c1.O=S(=O)([N-]S(=O)(=O)C(F)(F)F)C(F)(F)F
Conditions	mass density, [2] [kg/m3]	molar heat capacity at constant pressure, [1] [J/K/mol]	speed of sound, [2] [m/s]
287.15 K	1328.1 ± 9.6	–	1243.8 ± 5
289.15 K	1326.3 ± 9.6	–	1238.9 ± 5
291.15 K	1324.4 ± 9.6	–	1234.1 ± 5
293.15 K	1322.6 ± 9.5	681.82 ± 26	1229.3 ± 5
294.15 K	–	682.92 ± 26	–
295.15 K	1320.8 ± 9.5	683.63 ± 26	1224.5 ± 5
296.15 K	–	684.34 ± 26	–
297.15 K	1319.1 ± 9.5	685.11 ± 27	1219.8 ± 5
298.15 K	–	685.77 ± 27	–
299.15 K	1317.3 ± 9.5	686.48 ± 27	1215.1 ± 5
300.15 K	–	687.15 ± 27	–
301.15 K	1315.5 ± 9.4	687.82 ± 27	1210.4 ± 5
302.15 K	–	688.48 ± 27	–
303.15 K	1313.7 ± 9.4	689.15 ± 27	1205.8 ± 5
304.15 K	–	689.91 ± 27	–
305.15 K	1311.9 ± 9.4	690.67 ± 27	1201.2 ± 5
306.15 K	–	691.33 ± 27	–
307.15 K	1310.2 ± 9.4	692.19 ± 27	1196.6 ± 5
308.15 K	–	692.95 ± 27	–
309.15 K	1308.4 ± 9.3	693.62 ± 27	1192 ± 5
310.15 K	–	694.42 ± 27	–
311.15 K	1306.6 ± 9.3	695.14 ± 27	1187.5 ± 5
312.15 K	–	695.9 ± 27	–
313.15 K	1304.9 ± 9.3	696.66 ± 27	1183 ± 5
314.15 K	–	697.47 ± 27	–
315.15 K	1303.1 ± 9.3	698.23 ± 27	1178.4 ± 5
316.15 K	–	698.94 ± 27	–
317.15 K	1301.3 ± 9.2	699.65 ± 27	1173.9 ± 5
318.15 K	–	700.56 ± 27	–
319.15 K	1299.6 ± 9.2	701.27 ± 27	1169.5 ± 5
320.15 K	–	702.08 ± 27	–
321.15 K	1297.8 ± 9.2	702.84 ± 27	1165 ± 5
322.15 K	–	703.7 ± 27	–
323.15 K	1296.1 ± 9.2	704.55 ± 27	1160.6 ± 5
324.15 K	–	705.36 ± 27	–
325.15 K	1294.3 ± 9.1	706.26 ± 27	1156.2 ± 5
326.15 K	–	707.07 ± 27	–
327.15 K	1292.6 ± 9.1	707.93 ± 27	1151.8 ± 5
328.15 K	–	708.78 ± 27	–
329.15 K	1290.8 ± 9.1	709.59 ± 27	1147.4 ± 5
330.15 K	–	710.4 ± 28	–
331.15 K	1289.1 ± 9.1	711.16 ± 28	1143 ± 5
332.15 K	–	711.97 ± 28	–
333.15 K	1287.4 ± 9	712.68 ± 28	1138.7 ± 5
334.15 K	–	713.49 ± 28	–
335.15 K	1285.6 ± 9	714.25 ± 28	1134.3 ± 5
336.15 K	–	714.92 ± 28	–
337.15 K	1283.9 ± 9	715.82 ± 28	1130 ± 5
338.15 K	–	716.58 ± 28	–
339.15 K	1282.2 ± 9	717.34 ± 28	1125.7 ± 5
340.15 K	–	718.15 ± 28	–
341.15 K	1280.4 ± 8.9	718.86 ± 28	1121.5 ± 5
342.15 K	–	719.53 ± 28	–
343.15 K	1278.7 ± 8.9	720.2 ± 28	1117.3 ± 5
344.15 K	–	720.81 ± 28	–
345.15 K	–	721.43 ± 28	–
346.15 K	–	722.24 ± 28	–
347.15 K	–	723.05 ± 28	–
348.15 K	–	724.28 ± 28	–
